In patent publication US20240189388A1, “MEDICATION FOR TREATING LUNG INJURY” (SHANGHAI SEME CELL TECHNOLOGY CO., LTD., priority 2021, published 2024):

Tested on: rats with a lung injury
Experiment: Inflammatory factors in serum (Example 2)
Format: in vivo, Sprague-Dawley rats
Procedure: D0: The animals in the normal control group were intraperitoneally injected with sodium chloride injection (1 ml/kg), while the animals in other groups were intraperitoneally injected with lipopolysaccharides (1 mg/kg, 1 ml/kg).
D1: After 16 h (+30 min) of intraperitoneal injection, the animals were anesthetized by inhaling isoflurane. The animals in the normal control group were nebulized with sodium chloride injection (1 mL/kg) in the trachea, while the animals in other groups were nebulized with lipopolysaccharides (5 mg/kg, 1 ml/kg) in the trachea.
Administration frequency and duration: On D1, the animals were administered for the first time within 3 h after the intratracheal nebulization with the modeling reagent (LPS); and on D2, the animals were administered for the second time. The interval between the two administrations was about 24 h (+20 min).
Collection of blood sample: About 1 mL of abdominal aortic blood of each animal was collected into a centrifuge tube containing a separation gel and a coagulant.
Treatment of blood sample: After collection, the blood sample was stored and transported at room temperature, and centrifuged within 2 hours under the conditions: 3000 g, room temperature, and 10 minutes. The serum after centrifugation was transferred to a new labeled centrifuge tube and divided into 2 tubes, which were temporarily stored below −60° C. At the end of the experiment, inflammatory factors (IL-1β, IL-6, IL-10, and TNF-α) in the serum were tested by a reagent kit. The blood sample was managed by the Watson LIMS7.5 system.

[1] = D3, 0.75 mg/kg i.v. twice, 6 rats, x ± SD

## Annexin A5
[1]
  IL-1β in serum: 15.41 ± 25.29 pg/mL
  IL-6 in serum: 0.00 ± 0.00 pg/mL
  IL-10 in serum: 18.35 ± 9.84 pg/mL
  TNF-α in serum: 0.00 ± 0.00 pg/mL
Test sample group vs model control group
  Change of inflammatory factors in the serum: significantly decreased to similar levels as the normal control group
